{
  "source": "PubChem BioAssay (NCI)",
  "note": "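Compound exposure: 48 hours, 5 concentrations, 96-well plates. GI50 = concentration required for 50% inhibition of growth. The concentration for full growth arrest is given as TGI.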",
  "data": [
    {"test_system": "A549 NSCLC", "experiment": "NCI-60 cell line screen, 48 h", "units": {"TGI": "µM", "GI50": "µM"}, "values": [
      {"smiles": "O=C1[C@@H]2C(c3ccccc3F)=NO[C@@H]2C(=O)N1c1ccc(Cc2ccc(N3C(=O)[C@H]4C(c5ccccc5F)=NO[C@H]4C3=O)cc2)cc1", "TGI": "> 100"},
      {"smiles": "C=CCc1ccc(Oc2cc(CC=C)c3c(c2O)O[C@@H](CO)[C@H]3c2ccc(O)c(-c3cc(CC=C)ccc3O)c2)cc1", "TGI": "> 100"},
      {"smiles": "Cn1c2ccccc2c(=O)c2ccc(Cl)cc21", "TGI": "> 10"},
      {"smiles": "O=C(NCO)NCOCn1c(=O)n(CO)c(=O)n(CO)c1=O", "TGI": "> 100"},
      {"smiles": "Clc1ccc2c(c1)-c1c3c(nn1-c1ccccc1)-c1ccccc1SC3O2", "note": "(centres undefined)", "TGI": "> 100"},
      {"smiles": "COc1ccc(CCN2COc3c([C@@H](C)CCC=C(C)C)ccc(C)c3C2)cc1OC", "GI50": 10.3, "TGI": 31.5},
      {"smiles": "O=C1OC2CCCC[C@@H]2C2C[C@]34CCCCC3[C@@H](C(=O)O4)C12", "note": "(some centres undefined)", "TGI": "> 100"},
      {"smiles": "CN(C)c1cc[c]([Sn]([c]2ccc(N(C)C)cc2)([c]2ccc(N(C)C)cc2)[c]2ccc(N(C)C)cc2)cc1", "GI50": 13.8, "TGI": 37.5},
      {"smiles": "COc1cc(/C=C/c2cc(/C=C/c3ccc(O)c(OC)c3)n(C(=O)Nc3ccc(C)cc3C)n2)ccc1O", "GI50": 0.43, "TGI": 3.2},
      {"smiles": "C=C1C(=O)OC2/C=C(\\COC(C)=O)CCC(OC(C)=O)C3=CC(OC3=O)C12", "note": "(centres undefined)", "TGI": 43},
      {"smiles": "CCCSc1nc(COC(=O)NC)c(COC(=O)NC)n1C", "TGI": "> 100"},
      {"smiles": "O=C1CCC(O)=C1N=Nc1ccccc1", "TGI": "> 100"},
      {"smiles": "CCN(CC)c1ccc(N=Nc2ccc(-c3nc4ccc[n+](C)c4s3)cc2)cc1", "TGI": 26.3},
      {"smiles": "C[C@]12CC[C@@H]3c4cc(OCC(F)(F)F)c(O)cc4/C(=N/O)C[C@H]3[C@@H]1CC[C@@H]2O", "TGI": 35.6},
      {"smiles": "NC(=O)NCc1c(C(N)=O)ncn1Cc1ccccc1", "TGI": "> 100"},
      {"smiles": "COc1cc(/C=C/c2ccc(OC)c(OC)c2)cc(OC)c1", "TGI": "> 100"},
      {"smiles": "O=C1CSC(/C(=N/Nc2ccccc2)c2nc3ccccc3[nH]2)=N1", "TGI": "> 100"},
      {"smiles": "O=C(c1ccccc1)C1OC12C(=O)Nc1ccccc12", "note": "(centres undefined)", "TGI": "> 100"},
      {"smiles": "COc1ccc2nc(NC(=O)C(=O)C(C#N)c3ccc([N+](=O)[O-])cc3)sc2c1", "note": "(centres undefined)", "TGI": "> 100"},
      {"smiles": "COc1ccc(/C=C/c2cc(OC)cc(=O)o2)cc1", "TGI": "> 100"},
      {"smiles": "O=C1CSC(c2ccc(Cl)cc2Cl)N1c1ccc(F)cc1", "note": "(centres undefined)", "GI50": 19.1, "TGI": 36.1},
      {"smiles": "O=C(O)[C@H](NS(=O)(=O)c1ccc([N+](=O)[O-])cc1)c1ccccc1", "TGI": "> 100"},
      {"smiles": "S=C1OC2CCCC[C@H]2O1", "note": "(some centres undefined)", "TGI": "> 100"},
      {"smiles": "O=C1/C(=C/c2cccc([N+](=O)[O-])c2)COc2ccc(Br)cc21", "TGI": "> 100"},
      {"smiles": "CSC(C1c2ccccc2N(c2ccc(C)cc2)c2[nH]c(=O)n(C)c(=O)c21)S(=O)(=O)c1ccc(C)cc1", "note": "(centres undefined)", "TGI": "> 100"},
      {"smiles": "CCOC(=O)NC(=O)c1cn(CCCOC(=O)CCCCCCCCCCC(=O)OCCCn2cc(C(=O)NC(=O)OCC)c(=O)[nH]c2=O)c(=O)[nH]c1=O", "TGI": "> 100"},
      {"smiles": "COc1cc2[nH]c(C(=O)c3cc(OC)c(OC)c(OC)c3)c(N)c2cc1C#CC1CC1", "GI50": 6.65, "TGI": "> 100"},
      {"smiles": "COc1cc(/C=C(\\C#N)c2ccccc2)cc(OC)c1", "TGI": "> 100"},
      {"smiles": "N#Cc1cccnc1Cl", "TGI": "> 100"},
      {"smiles": "CC(=O)N[C@H]1CSSC[C@@H](C(N)=O)NC(=O)[C@H](C(C)C)NC(=O)[C@H](C)NC(=O)[C@H](Cc2cnc[nH]2)NC1=O", "GI50": "> 100", "TGI": "> 100"},
      {"smiles": "O=C1CC2c3ccccc3CCC2c2ccccc21", "note": "(centres undefined)", "TGI": "> 100"},
      {"smiles": "CCCCCCCCCCCC(=O)OCC1OC(OC)C(NC(=O)N(CCCl)N=O)C(O)C1O", "note": "(centres undefined)", "TGI": 36.8},
      {"smiles": "C=CC/C=C/C/C=C/CCCCCCCc1cccc(O)c1C(=O)O", "TGI": "> 100"},
      {"smiles": "COc1ccc(OC)c2c(C(=O)O)c(Cc3ccccc3)ccc12", "TGI": "> 100"},
      {"smiles": "O=C(Nc1c(Cl)cc([N+](=O)[O-])cc1Cl)C(=O)C(C1OC(=O)c2ccccc21)[N+](=O)[O-]", "note": "(centres undefined)", "TGI": "> 100"},
      {"smiles": "Cc1c(C(=O)/C=C/c2ccccc2)[n+](=O)c2ccccc2n1[O-]", "TGI": 43.2},
      {"smiles": "N#CC1CC2(C1)OCCS2", "note": "(centres undefined)", "TGI": "> 100"},
      {"smiles": "COc1cc(NC(C)CCCN)c2nccc(C)c2c1", "note": "(centres undefined)", "TGI": "> 100"},
      {"smiles": "C1C[OH+]CC[OH+]CC[OH+]CC[OH+]CC[OH+]1.[Cl-].[V]", "GI50": 61.1, "TGI": "> 100"},
      {"smiles": "CC(=O)C(=CN1CCN(C(=O)c2ccco2)C1=S)C(C)=O", "GI50": 11.2, "TGI": 32.7},
      {"smiles": "c1ccc(C2Nc3ccccc3C3OCCCC23)cc1", "note": "(centres undefined)", "TGI": "> 100"}
    ]},
    {"test_system": "NCI/ADR-RES ovarian", "experiment": "NCI-60 cell line screen, 48 h", "units": {"GI50": "µM", "TGI": "µM"}, "values": [
      {"smiles": "CC(CO)(CO)NCCCCn1ccc2c1C(=O)c1c(c(O)c3ccccc3c1O)C2=O", "GI50": 2.36, "TGI": 6.02},
      {"smiles": "COc1ccc(CCN2COc3c([C@@H](C)CCC=C(C)C)ccc(C)c3C2)cc1OC", "GI50": 2.96, "TGI": 9.51},
      {"smiles": "COc1cc(/C=C/c2cc(/C=C/c3ccc(O)c(OC)c3)n(C(=O)Nc3ccc(C)cc3C)n2)ccc1O", "GI50": 0.335, "TGI": 2.66},
      {"smiles": "CCCSc1nc(COC(=O)NC)c(COC(=O)NC)n1C", "TGI": "> 100"},
      {"smiles": "C[C@]12CC[C@@H]3c4cc(OCC(F)(F)F)c(O)cc4/C(=N/O)C[C@H]3[C@@H]1CC[C@@H]2O", "GI50": 0.0392, "TGI": 2.49},
      {"smiles": "COc1cc(/C=C/c2ccc(OC)c(OC)c2)cc(OC)c1", "TGI": 60},
      {"smiles": "COc1ccc(/C=C/c2cc(OC)cc(=O)o2)cc1", "TGI": "> 100"},
      {"smiles": "O=C1CSC(c2ccc(Cl)cc2Cl)N1c1ccc(F)cc1", "note": "(centres undefined)", "GI50": 18.8, "TGI": 35.5},
      {"smiles": "COc1cc2[nH]c(C(=O)c3cc(OC)c(OC)c(OC)c3)c(N)c2cc1C#CC1CC1", "GI50": 2.3, "TGI": 14.4},
      {"smiles": "CC(=O)N[C@H]1CSSC[C@@H](C(N)=O)NC(=O)[C@H](C(C)C)NC(=O)[C@H](C)NC(=O)[C@H](Cc2cnc[nH]2)NC1=O", "GI50": "> 100", "TGI": "> 100"},
      {"smiles": "COc1cc(NC(C)CCCN)c2nccc(C)c2c1", "note": "(centres undefined)", "TGI": "> 100"},
      {"smiles": "CC(=O)C(=CN1CCN(C(=O)c2ccco2)C1=S)C(C)=O", "GI50": 23.2, "TGI": 56.6}
    ]},
    {"test_system": "A498 renal", "experiment": "NCI-60 cell line screen, 48 h", "units": {"TGI": "µM", "GI50": "µM"}, "values": [
      {"smiles": "O=C1[C@@H]2C(c3ccccc3F)=NO[C@@H]2C(=O)N1c1ccc(Cc2ccc(N3C(=O)[C@H]4C(c5ccccc5F)=NO[C@H]4C3=O)cc2)cc1", "TGI": "> 100"},
      {"smiles": "C=CCc1ccc(Oc2cc(CC=C)c3c(c2O)O[C@@H](CO)[C@H]3c2ccc(O)c(-c3cc(CC=C)ccc3O)c2)cc1", "TGI": "> 100"},
      {"smiles": "CC(CO)(CO)NCCCCn1ccc2c1C(=O)c1c(c(O)c3ccccc3c1O)C2=O", "GI50": 22.3, "TGI": 51},
      {"smiles": "O=C(NCO)NCOCn1c(=O)n(CO)c(=O)n(CO)c1=O", "TGI": "> 100"},
      {"smiles": "Clc1ccc2c(c1)-c1c3c(nn1-c1ccccc1)-c1ccccc1SC3O2", "note": "(centres undefined)", "TGI": "> 100"},
      {"smiles": "COc1ccc(CCN2COc3c([C@@H](C)CCC=C(C)C)ccc(C)c3C2)cc1OC", "GI50": 1.96, "TGI": 11.9},
      {"smiles": "O=C1OC2CCCC[C@@H]2C2C[C@]34CCCCC3[C@@H](C(=O)O4)C12", "note": "(some centres undefined)", "TGI": "> 100"},
      {"smiles": "CN(C)c1cc[c]([Sn]([c]2ccc(N(C)C)cc2)([c]2ccc(N(C)C)cc2)[c]2ccc(N(C)C)cc2)cc1", "GI50": 7.47, "TGI": 20.3},
      {"smiles": "COc1cc(/C=C/c2cc(/C=C/c3ccc(O)c(OC)c3)n(C(=O)Nc3ccc(C)cc3C)n2)ccc1O", "GI50": 0.538, "TGI": 1.93},
      {"smiles": "C=C1C(=O)OC2/C=C(\\COC(C)=O)CCC(OC(C)=O)C3=CC(OC3=O)C12", "note": "(centres undefined)", "TGI": 34.1},
      {"smiles": "CCCSc1nc(COC(=O)NC)c(COC(=O)NC)n1C", "TGI": "> 100"},
      {"smiles": "O=C1CCC(O)=C1N=Nc1ccccc1", "TGI": "> 100"},
      {"smiles": "CCN(CC)c1ccc(N=Nc2ccc(-c3nc4ccc[n+](C)c4s3)cc2)cc1", "TGI": 26.6},
      {"smiles": "C[C@]12CC[C@@H]3c4cc(OCC(F)(F)F)c(O)cc4/C(=N/O)C[C@H]3[C@@H]1CC[C@@H]2O", "TGI": 21.5},
      {"smiles": "NC(=O)NCc1c(C(N)=O)ncn1Cc1ccccc1", "TGI": "> 100"},
      {"smiles": "O=C1CSC(/C(=N/Nc2ccccc2)c2nc3ccccc3[nH]2)=N1", "TGI": "> 100"},
      {"smiles": "O=C(c1ccccc1)C1OC12C(=O)Nc1ccccc12", "note": "(centres undefined)", "TGI": "> 100"},
      {"smiles": "O=C1CSC(c2ccc(Cl)cc2Cl)N1c1ccc(F)cc1", "note": "(centres undefined)", "GI50": 15.9, "TGI": 29.8},
      {"smiles": "O=C1/C(=C/c2cccc([N+](=O)[O-])c2)COc2ccc(Br)cc21", "TGI": "> 100"},
      {"smiles": "CSC(C1c2ccccc2N(c2ccc(C)cc2)c2[nH]c(=O)n(C)c(=O)c21)S(=O)(=O)c1ccc(C)cc1", "note": "(centres undefined)", "TGI": "> 100"},
      {"smiles": "COc1cc2[nH]c(C(=O)c3cc(OC)c(OC)c(OC)c3)c(N)c2cc1C#CC1CC1", "GI50": 3.23, "TGI": 61.1},
      {"smiles": "N#Cc1cccnc1Cl", "TGI": "> 100"},
      {"smiles": "O=C1CC2c3ccccc3CCC2c2ccccc21", "note": "(centres undefined)", "TGI": 41.1},
      {"smiles": "CCCCCCCCCCCC(=O)OCC1OC(OC)C(NC(=O)N(CCCl)N=O)C(O)C1O", "note": "(centres undefined)", "TGI": 35.7}
    ]}
  ]
}
